This data set has as its system CCRIS mutagenicity, Ames/micronucleus/aberration tests. Kind of data set: CCRIS mutagenicity studies.
The mark [1] stands for this setting: Test System: AMES SALMONELLA TYPHIMURIUM, Strain/Indicator: TA98, Metabolic Activation: NONE, Method: STANDARD PLATE.
The mark [2] stands for this setting: Test System: AMES SALMONELLA TYPHIMURIUM, Strain/Indicator: TA100, Metabolic Activation: NONE, Method: STANDARD PLATE.

Structures are written as SMILES. Calls of active or inactive are those of the source. How the calls were made is not given here.

We go through 3 compounds from PubChem BioAssay AID1259407 (Chemical Carcinogenesis Research Information System (CCRIS), 2018).

In the case of `Cc1ccc2ncccc2c1`, the mutagenic call is “active; positive” (Test System: AMES SALMONELLA TYPHIMURIUM, Strain/Indicator: TA98, Metabolic Activation: HAMSTER, LIVER, S-9, AROCLOR 1254 (30%), Method: PREINCUBATION); “inactive; negative” (Test System: AMES SALMONELLA TYPHIMURIUM, Strain/Indicator: TA98, Metabolic Activation: NONE, Method: PREINCUBATION); “inactive; negative” (Test System: AMES SALMONELLA TYPHIMURIUM, Strain/Indicator: TA98, Metabolic Activation: RAT, LIVER, S-9, AROCLOR 1254 (5 OR 10%), Method: PREINCUBATION); “active; positive” (Test System: AMES SALMONELLA TYPHIMURIUM, Strain/Indicator: TA100, Metabolic Activation: HAMSTER, LIVER, S-9, AROCLOR 1254 (30%), Method: PREINCUBATION); “inactive; negative” (Test System: AMES SALMONELLA TYPHIMURIUM, Strain/Indicator: TA100, Metabolic Activation: NONE, Method: PREINCUBATION); “active; positive” (Test System: AMES SALMONELLA TYPHIMURIUM, Strain/Indicator: TA100, Metabolic Activation: RAT, LIVER, S-9, AROCLOR 1254 (30%), Method: PREINCUBATION). Moreover, the mutagenic call by setting is: (Test System: AMES SALMONELLA TYPHIMURIUM, Strain/Indicator: TA100, Metabolic Activation: RAT, LIVER, S-9, PHENOBARBITAL AND 5,6-BENZOFLAVONE, Method: PREINCUBATION) “active; positive”; (Test System: AMES SALMONELLA TYPHIMURIUM, Strain/Indicator: TA100, Metabolic Activation: RAT, LIVER, S-9, PHENOBARBITAL AND 5,6-NAPHTHOFLAVONE, Method: PREINCUBATION) “active; positive”; (Test System: AMES SALMONELLA TYPHIMURIUM, Strain/Indicator: TA100, Metabolic Activation: RAT, LIVER, S-9, Method: PREINCUBATION) “active; positive”; (Test System: UDS RODENT HEPATOCYTES, Strain/Indicator: THY INCORP (NON-S-PHASE), Metabolic Activation: NONE, Method: AUTORADIOGRAPHY) “inactive; negative”.

In the case of `O=C(O)[C@@H]1CS[C@H](c2ccccc2O)N1C(=O)CCSSCCC(=O)N1[C@@H](c2ccccc2O)SC[C@H]1C(=O)O`, the mutagenic call was “inactive; negative” under setting [1]; “inactive; negative” under setting [2]; “inactive; negative” (Test System: AMES SALMONELLA TYPHIMURIUM, Strain/Indicator: TA1535, Metabolic Activation: NONE, Method: STANDARD PLATE); “inactive; negative” (Test System: AMES SALMONELLA TYPHIMURIUM, Strain/Indicator: TA1537, Metabolic Activation: NONE, Method: STANDARD PLATE); “inactive; negative” (Test System: AMES SALMONELLA TYPHIMURIUM, Strain/Indicator: TA1538, Metabolic Activation: NONE, Method: STANDARD PLATE); “inactive; negative” (Test System: E. COLI, Strain/Indicator: WP2, Metabolic Activation: NONE, Method: STANDARD PLATE). Moreover, the mutagenic call (Test System: E. COLI, Strain/Indicator: WP2 UVRA, Metabolic Activation: NONE, Method: STANDARD PLATE) was “inactive; negative”.

Regarding `C[C@H]1CC[C@@H]2[C@@H](C)[C@H]3[C@H](C[C@H]4[C@@H]5CC=C6C[C@@H](O[C@@H]7O[C@H](CO)[C@@H](O[C@@H]8O[C@@H](C)[C@H](O)[C@@H](O)[C@H]8O)[C@H](O)[C@H]7O[C@@H]7O[C@@H](C)[C@H](O)[C@@H](O)[C@H]7O)CC[C@]6(C)[C@H]5CC[C@]34C)N2C1`, the mutagenic call was “inactive; negative” under setting [1]; “inactive; negative” (Test System: AMES SALMONELLA TYPHIMURIUM, Strain/Indicator: TA98, Metabolic Activation: S-9, Method: STANDARD PLATE); “inactive; negative” under setting [2]; “inactive; negative” (Test System: AMES SALMONELLA TYPHIMURIUM, Strain/Indicator: TA100, Metabolic Activation: S-9, Method: STANDARD PLATE).
